Molecular target: T1, ABP (amantadine-binding protein)
T1 construct: de novo designed homo-trimer; GSHMG//[…]
Experiment: X-ray crystal structure ([…] Å) and neutron structure ([…] Å) of the complex; NMR titration with TITAN line shape fitting (Kd)
Parameters: species or system synthetic construct

NC12CC3CC(CC(C3)C1)C2 [amantadine]
Kd: 24.1 ± 2.7 µM

— publication PMC6922598, “De novo design of a homo-trimeric amantadine-binding protein” (eLife, 2019)
